Values of other authors as cited in patent publication US20070134395A1, “Method of reducing manganese in defatted soy isolate” (priority 2005, published 2007).
Like-named read-outs stand apart in the source and are kept apart here.

Columns and labels:
[1] = neonate, from soy-based infant formula
[2] = neonate, excess Mn not metabolized
[3] = calcium-deficient rat pups

Compound	Mn absorbed above metabolic need [1]	intestinal absorption of Mn (adults)	intestinal absorption of Mn (neonatal, animal models)	share of excess Mn stored in the basal ganglia region [2]	greater amount of Mn in the cerebral column tissue and fluids [3] [%]
[Mn+2] [Mn, Manganese]	approximately 1.1 mg	one percent to about two percent	seventy percent to about eighty percent	about eight	–
CC(=O)[O-].CC(=O)[O-].[Mg+2] [magnesium acetate]	–	–	–	–	900
